Data: PMC12796986 (Journal of medicinal chemistry, 2025)
≈ marks a conversion by molar mass, not a printed value. Read-outs that look alike come from different tables or passages of the source.

Columns and labels:
in vitro [1] = details: human
mpox resolvase (Mpr) = mpox resolvase (Mpr) (Monkeypox virus, UniProt A0A7H0DNC1); assay: biochemical; assay type: biochemical
VACV-Gluc reporter virus = assay: microbe, parasite or virus in culture; assay type: cell-based, vaccinia virus; details: for EC50: Orthopoxvirus vaccinia, HFF, 24 h, read-out: VACV EC50
physchem = details: pH 7.2, aqueous buffer, kinetic from dmso stock
in vitro [2] = details: PAMPA
in vitro [3] = details: human, plasma, pH 7.4
in vitro [4] = details: human, microsomes, pH 7.4
[5] = microsomes
[6] = pH 7.2
[7] = test system: fowlpox virus resolvase (Fpr); details: read-out: Fpr IC50; cited from earlier work

Sequence of mpox resolvase (Mpr) (A0A7H0DNC1 whole entry, looked up): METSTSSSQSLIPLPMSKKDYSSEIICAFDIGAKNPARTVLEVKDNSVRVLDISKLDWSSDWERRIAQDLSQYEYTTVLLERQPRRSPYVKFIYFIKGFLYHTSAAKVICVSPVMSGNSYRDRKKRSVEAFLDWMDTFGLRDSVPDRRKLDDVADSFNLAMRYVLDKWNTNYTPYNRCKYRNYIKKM

Row | Compound | CC50 (in vitro [1]) [nM] | IC50 (mpox resolvase (Mpr)) [nM] | SI (selectivity index, CC50 / EC50) (VACV-Gluc reporter virus) | EC50 (VACV-Gluc reporter virus) [nM] | solubility (physchem) [µM] | Papp (in vitro [2]) [×10⁻⁶ cm/s] | half-life (in vitro [3]) [h] | half-life (in vitro [4]) [h] | human microsomal stability [5] | solubility [6] | IC50 [7] [nM] | fold improvement in Mpr inhibition over C-6 regioisomer (compound 3 for 5-1) (mpox resolvase (Mpr)) [fold] | fold better antiviral potency than brincidofovir (VACV-Gluc reporter virus) [fold] | fold improvement in antiviral potency against VACV over compound 3 (VACV-Gluc reporter virus) [fold] | fluorescence quenching in the FRET assay (mpox resolvase (Mpr))
1 | CCc1c(O)c2cc(-c3ccc(-c4ccccc4)cc3)cnc2n(O)c1=O [4b-2, 6-([1,1’-biphenyl]-4-yl)-3-ethyl-1,4-dihydroxy-1,8-naphthyridin-2(1H)-one] | > 250000 | 360 ± 20 | >6.4 × 10^2 | 390 ± 10 | 1.4 ± 0.1 (≈ 0.502 µg/mL) | 3.8 ± 0.1 | > 24 | > 2 | – | – | – | – | – | – | –
2 | O=c1c(-c2ccccc2)c(O)c2cc(-c3cccc(-c4ccccc4)c3)cnc2n1O [compound 3, 6-([1,1’-biphenyl]-3-yl)-1,4-dihydroxy-3-phenyl-1,8-naphthyridin-2(1H)-one] | > 250000 | 340 ± 60 | >1.9 × 10^2 | 1300 ± 300 | 130 ± 8 (≈ 52.8 µg/mL) | 6 ± 2 | > 24 | > 2 | excellent human microsomal stability | acceptable solubility | 300 | – | – | – | –
3 | COc1ccc(-c2cnc3c(c2)c(O)c(-c2ccccc2)c(=O)n3O)cc1F [4a-10, 6-(3-fluoro-4-methoxyphenyl)-1,4-dihydroxy-3-phenyl-1,8-naphthyridin-2(1H)-one] | > 250000 | 1600 ± 200 | >26 | 9700 ± 300 | – | – | – | – | – | – | – | – | – | – | –
4 | O=c1cc(O)c2c(-c3cccc(-c4ccccc4)c3)ccnc2n1O [5-3, 5-([1,1’-biphenyl]-3-yl)-1,4-dihydroxy-1,8-naphthyridin-2(1H)-one] | > 250000 | 15 ± 1 | – | 6000 ± 1000 | – | – | – | – | – | – | – | 10 | – | – | –
5 | O=c1c(-c2ccccc2)c(O)c2c(-c3cccc(-c4ccccc4)c3)ccnc2n1O [5-1, 5-([1,1’-biphenyl]-3-yl)-1,4-dihydroxy-3-phenyl-1,8-naphthyridin-2(1H)-one] | 150000 | 36 ± 1 | 4.7 × 10^4 | 3.2 ± 0.7 | 130 ± 4 (≈ 52.8 µg/mL) | 9 ± 1 | > 24 | > 2 | excellent human microsomal stability | acceptable solubility | – | 10 | 2 | 400 | –
6 | CCCCCCCCCCCCCCCCOCCCOP(=O)(O)CO[C@H](CO)Cn1ccc(N)nc1=O [Brincidofovir, brincidofovir, reference compound] | > 250000 | – | >3 × 10^4 | 7 ± 4 | – | – | – | – | – | – | – | – | – | – | –
7 | O=c1c(-c2ccccc2)c(O)c2cc(-c3ccc(Oc4ccccc4)cc3)cnc2n1O [4a-3, 1,4-dihydroxy-6-(4-phenoxyphenyl)-3-phenyl-1,8-naphthyridin-2(1H)-one] | > 250000 | 120 ± 10 | >1.9 × 10^2 | 1300 ± 400 | 86 ± 5 (≈ 36.3 µg/mL) | 8.6 ± 0.8 | > 24 | 0.715 ± 0.0117 | – | – | – | – | – | – | –
8 | CCc1c(O)c2cc(-c3ccc(Oc4ccccc4)cc3)cnc2n(O)c1=O [4b-3, 3-ethyl-1,4-dihydroxy-6-(4-phenoxyphenyl)-1,8-naphthyridin-2(1H)-one] | > 250000 | 320 ± 60 | >1.5 × 10^2 | 1600 ± 100 | 47 ± 4 (≈ 17.6 µg/mL) | 5.2 ± 0.6 | > 24 | 0.587 ± 0.0133 | – | – | – | – | – | – | –
9 | O=c1c(-c2ccccc2)c(O)c2cc(-c3ccccc3)cnc2n1O [4a-5, 1,4-dihydroxy-3,6-diphenyl-1,8-naphthyridin-2(1H)-one] | > 250000 | 900 ± 200 | >1.0 × 10^2 | 2400 ± 300 | – | – | – | – | – | – | – | – | – | – | –
10 | O=c1cc(O)c2cc(-c3ccc(C(F)(F)F)cc3)cnc2n1O [4c-7, 1,4-dihydroxy-6-(4-(trifluoromethyl)phenyl)-1,8-naphthyridin-2(1H)-one] | – | 470 ± 50 | – | – | – | – | – | – | – | – | – | – | – | – | –
11 | CSc1ccc(-c2cnc3c(c2)c(O)cc(=O)n3O)cc1 [4c-8, 1,4-dihydroxy-6-(4-(methylthio)phenyl)-1,8-naphthyridin-2(1H)-one] | – | – | – | – | – | – | – | – | – | – | – | – | – | – | direct quenching of fluorophore
12 | O=c1c(-c2ccccc2)c(O)c2cc(-c3ccc(O)cc3)cnc2n1O [4a-15, 1,4-dihydroxy-6-(4-hydroxyphenyl)-3-phenyl-1,8-naphthyridin-2(1H)-one] | – | 1500 ± 100 | – | – | – | – | – | – | – | – | – | – | – | – | –
